PMC12624316, “Studies of α′,β′‐Epoxyketone Synthesis by Small‐Molecule Flavins and Flavoenzymes” (Angewandte Chemie (International Ed. in English), 2025)

Target: T1, EpxF (Goodfellowiella coeruleoviolacea, UniProt V5RNC8)
T1 construct: expressed in Escherichia coli; homodimer; residues 253-264 and 336-346 not defined in the density
T1 sequence (V5RNC8 2-563): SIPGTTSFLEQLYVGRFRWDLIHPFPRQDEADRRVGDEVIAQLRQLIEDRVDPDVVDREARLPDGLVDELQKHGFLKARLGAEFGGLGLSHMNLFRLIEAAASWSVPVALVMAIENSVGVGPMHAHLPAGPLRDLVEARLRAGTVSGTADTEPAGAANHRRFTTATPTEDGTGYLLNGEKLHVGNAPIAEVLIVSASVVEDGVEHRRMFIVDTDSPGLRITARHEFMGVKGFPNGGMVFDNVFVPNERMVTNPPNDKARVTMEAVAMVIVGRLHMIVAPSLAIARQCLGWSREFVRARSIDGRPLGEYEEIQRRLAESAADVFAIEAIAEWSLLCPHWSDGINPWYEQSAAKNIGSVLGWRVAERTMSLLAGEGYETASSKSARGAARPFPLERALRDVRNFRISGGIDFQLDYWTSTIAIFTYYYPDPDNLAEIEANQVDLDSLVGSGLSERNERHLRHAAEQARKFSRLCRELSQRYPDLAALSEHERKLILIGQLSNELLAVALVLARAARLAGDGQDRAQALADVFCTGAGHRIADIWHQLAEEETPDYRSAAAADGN
Test: X-ray crystal structure, […] Å
Assay type: binding
Conditions: FAD bound in both subunits of the homodimer, adenine anchored in the dimer interface

Cc1cc2nc3c(=O)[nH]c(=O)nc-3n(C[C@H](O)[C@H](O)[C@H](O)COP(=O)(O)OP(=O)(O)OC[C@H]3O[C@@H](n4cnc5c(N)ncnc54)[C@H](O)[C@@H]3O)c2cc1C [FAD] was tested, and the “X-ray crystal structure, 2.4 Å” value was “electron density map depicts FAD bound at two distinct catalytic centers”.
